Laboratory results taken from PubChem BioAssay (NCI).
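A five-concentration, 48-hour dose response in 96-well plates underlies each endpoint, interpolated linearly between surrounding concentrations. TGI denotes the concentration required for complete inhibition of growth.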

Columns and labels:
Assay in all cases: growth of human tumour cells (NCI), 48 h
[1] = test system: A549 NSCLC
[2] = test system: NCI-H522 lung
[3] = test system: T-47D breast
[4] = test system: RXF 393 renal
[5] = test system: BT-549 breast
[6] = test system: SK-MEL-2 melanoma
[7] = test system: UACC-257 melanoma
[8] = test system: PC-3 prostate
[9] = test system: UACC-62 melanoma
[10] = test system: OVCAR-5 ovarian
[11] = test system: KM12 colon
[12] = test system: HT29 colon
[13] = test system: MDA-N
[14] = test system: LOX IMVI melanoma
[15] = test system: SNB-19 CNS
[16] = test system: SF-268 CNS
[17] = test system: NCI/ADR-RES ovarian
[18] = test system: RPMI-8226 leukemia
[19] = test system: SR leukemia
[20] = test system: SF-539 CNS
[21] = test system: COLO 205 colon
[22] = test system: ACHN renal
[23] = test system: CCRF-CEM leukemia
[24] = test system: HL-60(TB) leukemia
[25] = test system: OVCAR-4 ovarian
[26] = test system: NCI-H460 lung
[27] = test system: DU-145 prostate
[28] = test system: SK-MEL-28 melanoma
[29] = test system: NCI-H226 lung
[30] = test system: SK-OV-3 ovarian
[31] = test system: K-562 leukemia
[32] = test system: CAKI-1 renal
[33] = test system: UO-31 renal
[34] = test system: HCT-116 colon
[35] = test system: M14 melanoma
[36] = test system: HCT-15 colon
[37] = test system: SK-MEL-5 melanoma
[38] = test system: HOP-92 NSCLC
[39] = test system: MDA-MB-231 breast
[40] = test system: HOP-62 NSCLC
[41] = test system: SF-295 CNS
[42] = test system: IGROV1 ovarian
[43] = test system: MOLT-4 leukemia
[44] = test system: A498 renal
[45] = test system: MCF7 breast
[46] = test system: 786-0 renal
[47] = test system: MDA-MB-435
[48] = test system: MALME-3M melanoma
[49] = test system: SNB-75 CNS
[50] = test system: OVCAR-3 ovarian
[51] = test system: OVCAR-8 ovarian
[52] = test system: HCC-2998 colon
[53] = test system: EKVX NSCLC
[54] = test system: NCI-H23 lung
[55] = test system: U251 CNS
[56] = test system: SN12C renal
[57] = test system: SW-620 colon
[58] = test system: TK-10 renal

C=C(C)C12OC3(c4ccccc4)OC1C1C4OC4(CO)C(O)C4(O)C(=O)C(C)=CC4C1(O3)C(C)C2OC(=O)/C=C/C=C/c1ccccc1 (centres undefined)
TGI [1]: 2390 nM | TGI [2]: 1100 nM | TGI [3]: 4840 nM | TGI [4]: 1070 nM | TGI [5]: 970 nM | TGI [6]: 1890 nM | TGI [7]: 1940 nM | TGI [8]: 620 nM | TGI [9]: 1290 nM | TGI [10]: 597 nM | TGI [11]: 862 nM | TGI [12]: 220 nM | TGI [13]: 817 nM | TGI [14]: 411 nM | TGI [15]: 5000 nM | TGI [16]: 1250 nM | TGI [17]: 1380 nM | TGI [18]: 519 nM | TGI [19]: 385 nM | TGI [20]: 1520 nM | TGI [21]: 41.6 nM | TGI [22]: 557 nM | TGI [23]: 1500 nM | TGI [24]: 107 nM | TGI [25]: 697 nM | TGI [26]: 3040 nM | TGI [27]: 1470 nM | TGI [28]: 1550 nM | TGI [29]: 1060 nM | TGI [30]: 4730 nM | TGI [31]: 2350 nM | TGI [32]: 1520 nM | TGI [33]: 576 nM | TGI [34]: 887 nM | TGI [35]: 409 nM | TGI [36]: 1980 nM | TGI [37]: 989 nM | TGI [38]: 836 nM | TGI [39]: 264 nM | TGI [40]: 1650 nM | TGI [41]: 1090 nM | TGI [42]: 2400 nM | TGI [43]: 2340 nM | TGI [44]: 183 nM | TGI [45]: 911 nM | TGI [46]: 699 nM | TGI [47]: 742 nM | TGI [48]: 1240 nM | TGI [49]: 1150 nM | TGI [50]: 316 nM | TGI [51]: 1150 nM | TGI [52]: 246 nM | TGI [53]: 1130 nM | TGI [54]: 1400 nM | TGI [55]: 894 nM | TGI [56]: 370 nM

C=Cc1ccccc1C1C(C(=O)OCC)=C(C)N=C2OC(C(=O)OC)C(=O)N21 (centres undefined)
TGI [1]: > 100000 nM | TGI [2]: > 100000 nM | TGI [3]: > 100000 nM | TGI [4]: > 100000 nM | TGI [5]: > 100000 nM | TGI [6]: > 100000 nM | TGI [7]: > 100000 nM | TGI [8]: > 100000 nM | TGI [9]: > 100000 nM | TGI [10]: > 100000 nM | TGI [11]: > 100000 nM | TGI [12]: > 100000 nM | TGI [57]: > 100000 nM | TGI [13]: > 100000 nM | TGI [14]: > 100000 nM | TGI [15]: > 100000 nM | TGI [16]: > 100000 nM | TGI [17]: > 100000 nM | TGI [18]: > 100000 nM | TGI [19]: > 100000 nM | TGI [20]: > 100000 nM | TGI [21]: > 100000 nM | TGI [22]: > 100000 nM | TGI [23]: > 100000 nM | TGI [24]: > 100000 nM | TGI [25]: > 100000 nM | TGI [26]: > 100000 nM | TGI [27]: > 100000 nM | TGI [28]: > 100000 nM | TGI [29]: > 100000 nM | TGI [30]: > 100000 nM | TGI [31]: > 100000 nM | TGI [32]: > 100000 nM | TGI [33]: > 100000 nM | TGI [34]: > 100000 nM | TGI [35]: > 100000 nM | TGI [36]: > 100000 nM | TGI [37]: > 100000 nM | TGI [38]: > 100000 nM | TGI [39]: > 100000 nM | TGI [40]: > 100000 nM | TGI [41]: > 100000 nM | TGI [42]: > 100000 nM | TGI [43]: > 100000 nM | TGI [44]: > 100000 nM | TGI [45]: > 100000 nM | TGI [46]: > 100000 nM | TGI [47]: > 100000 nM | TGI [48]: > 100000 nM | TGI [49]: > 100000 nM | TGI [50]: > 100000 nM | TGI [51]: > 100000 nM | TGI [52]: > 100000 nM | TGI [53]: > 100000 nM | TGI [54]: > 100000 nM | TGI [55]: > 100000 nM | TGI [58]: > 100000 nM | TGI [56]: > 100000 nM
